From US20060223879A1, “Non-steroidal farnesoid x receptor modulators” (priority 2002, published 2006)

The compounds below were run against T1, FXR (Homo sapiens, UniProt Q96RI1) (assay: cell-based transcription assay, FXR responsive promoter linked to a luciferase reporter). Conditions: Tables 1-15; FXR activation, cell-based reporter assay; read-out: EC50.
T1 construct: using a full length FXR on a natural response element; expressed in transfected cells
T1 sequence (Q96RI1 1-486): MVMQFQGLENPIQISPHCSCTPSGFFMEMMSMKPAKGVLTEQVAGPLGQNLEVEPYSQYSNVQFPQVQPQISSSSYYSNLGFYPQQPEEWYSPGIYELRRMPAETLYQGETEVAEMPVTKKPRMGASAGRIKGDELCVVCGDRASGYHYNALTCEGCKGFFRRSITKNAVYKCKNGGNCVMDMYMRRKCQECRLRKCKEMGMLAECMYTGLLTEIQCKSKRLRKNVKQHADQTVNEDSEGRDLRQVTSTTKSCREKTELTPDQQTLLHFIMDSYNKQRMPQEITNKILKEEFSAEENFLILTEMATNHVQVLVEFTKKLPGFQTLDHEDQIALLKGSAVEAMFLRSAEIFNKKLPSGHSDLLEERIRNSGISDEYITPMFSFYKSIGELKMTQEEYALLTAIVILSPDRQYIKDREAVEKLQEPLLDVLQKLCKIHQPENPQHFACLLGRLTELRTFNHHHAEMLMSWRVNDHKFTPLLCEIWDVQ
Design: RE: scale not given here
How it was run: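 Cells co-transfected with full-length FXR and a luciferase reporter carrying a natural hormone response element on a minimal promoter.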
`COC(=O)/C=C/c1cccc(N(Cc2ccc(-c3ccc(F)c(Cl)c3)cc2)C(=O)C(C)C)c1` [Compound 248] was tested, and the EC50 was 129 nM.
With `COC(=O)/C=C/c1cccc(N(Cc2ccc(-c3ccc(F)c(Cl)c3)cc2)C(=O)NC(C)C)c1` [Compound 249] the EC50 was 3050 nM.
`COC(=O)/C=C/c1cccc(N(Cc2ccc(-c3ccc(OC(F)(F)F)cc3)cc2)C(=O)C2CCCCC2)c1` [Compound 250] was tested, and the EC50 was 264 nM.
In the case of `COC(=O)/C=C/c1cccc(N(Cc2ccc(-c3ccc(OC(F)(F)F)cc3)cc2)C(=O)C(C)C)c1` [Compound 251], the EC50 is reported as 219 nM.
For `COC(=O)/C=C/c1cccc(N(Cc2ccc(-c3ccc(OC(F)(F)F)cc3)cc2)C(=O)NC(C)C)c1` [Compound 252], the EC50 was 7530 nM.
With `COC(=O)/C=C/c1cccc(N(Cc2ccc(-c3cccc(OC(F)(F)F)c3)cc2)C(=O)C2CCCCC2)c1` [Compound 253] the EC50 was 420 nM.
Work on `COC(=O)/C=C/c1cccc(N(Cc2ccc(-c3cccc(OC(F)(F)F)c3)cc2)C(=O)C(C)C)c1` [Compound 254] yielded an EC50 of 247 nM.
For `COC(=O)/C=C/c1cccc(N(Cc2ccc(-c3cccc(OC(F)(F)F)c3)cc2)C(=O)NC(C)C)c1` [Compound 255], the EC50 was > 10000 nM.
`COC(=O)/C=C/c1cccc(N(Cc2ccc(-c3c(OC)cccc3OC)cc2)C(=O)C2CCCCC2)c1` [Compound 256] gave an EC50 of 77 nM.
`COC(=O)/C=C/c1cccc(N(Cc2ccc(-c3c(OC)cccc3OC)cc2)C(=O)C(C)C)c1` [Compound 257] was tested, and the EC50 was 95 nM.
Compound `COC(=O)/C=C/c1cccc(N(Cc2ccc(-c3c(OC)cccc3OC)cc2)C(=O)NC(C)C)c1` [Compound 258] has an EC50 of 561 nM.
`COC(=O)/C=C/c1cccc(N(Cc2ccc(-c3ccc(N(C)C)cc3)cc2)C(=O)C(C)C)c1` [Compound 260] was tested, and the EC50 was 57 nM.
For `COC(=O)/C=C/c1cccc(N(Cc2ccc(-c3ccc(N(C)C)cc3)cc2)C(=O)NC(C)C)c1` [Compound 261], the EC50 was 162 nM.
`COC(=O)/C=C/c1cccc(N(Cc2ccc(-c3ccc(C(C)(C)C)cc3)cc2)C(=O)C2CCCCC2)c1` [Compound 262] gave an EC50 of 132 nM.
`COC(=O)/C=C/c1cccc(N(Cc2ccc(-c3ccc(CC(C)C)cc3)cc2)C(=O)C(C)C)c1` [Compound 263] showed an EC50 of 343 nM.
`COC(=O)/C=C/c1cccc(N(Cc2ccc(-c3ccc(C(C)(C)C)cc3)cc2)C(=O)NC(C)C)c1` [Compound 264] was tested, and the EC50 was 262 nM.
With `COC(=O)/C=C/c1cccc(N(Cc2ccc(-c3cccc(OC)c3)cc2)C(=O)C2CCCCC2)c1` [i] the EC50 was 77 nM.

Same assay, conditions: Tables 1-15; RE not defined in the source
Compound `COC(=O)/C=C/c1cccc(N(Cc2ccc(-c3ccc(F)c(Cl)c3)cc2)C(=O)C(C)C)c1` [Compound 248] has an RE of 1.64.
Compound `COC(=O)/C=C/c1cccc(N(Cc2ccc(-c3ccc(F)c(Cl)c3)cc2)C(=O)NC(C)C)c1` [Compound 249] has an RE of 0.41.
`COC(=O)/C=C/c1cccc(N(Cc2ccc(-c3ccc(OC(F)(F)F)cc3)cc2)C(=O)C2CCCCC2)c1` [Compound 250] was tested, and the RE was 1.04.
`COC(=O)/C=C/c1cccc(N(Cc2ccc(-c3ccc(OC(F)(F)F)cc3)cc2)C(=O)C(C)C)c1` [Compound 251] gave an RE of 0.78.
Compound `COC(=O)/C=C/c1cccc(N(Cc2ccc(-c3ccc(OC(F)(F)F)cc3)cc2)C(=O)NC(C)C)c1` [Compound 252] has an RE of 0.21.
Work on `COC(=O)/C=C/c1cccc(N(Cc2ccc(-c3cccc(OC(F)(F)F)c3)cc2)C(=O)C2CCCCC2)c1` [Compound 253] yielded an RE of 0.84.
`COC(=O)/C=C/c1cccc(N(Cc2ccc(-c3cccc(OC(F)(F)F)c3)cc2)C(=O)C(C)C)c1` [Compound 254] showed an RE of 0.59.
With `COC(=O)/C=C/c1cccc(N(Cc2ccc(-c3cccc(OC(F)(F)F)c3)cc2)C(=O)NC(C)C)c1` [Compound 255] the RE was 0.09.
With `COC(=O)/C=C/c1cccc(N(Cc2ccc(-c3c(OC)cccc3OC)cc2)C(=O)C2CCCCC2)c1` [Compound 256] the RE was 0.12.
`COC(=O)/C=C/c1cccc(N(Cc2ccc(-c3c(OC)cccc3OC)cc2)C(=O)C(C)C)c1` [Compound 257] showed an RE of 0.10.
With `COC(=O)/C=C/c1cccc(N(Cc2ccc(-c3c(OC)cccc3OC)cc2)C(=O)NC(C)C)c1` [Compound 258] the RE was 0.10.
With `COC(=O)/C=C/c1cccc(N(Cc2ccc(-c3ccc(N(C)C)cc3)cc2)C(=O)C(C)C)c1` [Compound 260] the RE was 1.07.
Compound `COC(=O)/C=C/c1cccc(N(Cc2ccc(-c3ccc(N(C)C)cc3)cc2)C(=O)NC(C)C)c1` [Compound 261] has an RE of 1.01.
`COC(=O)/C=C/c1cccc(N(Cc2ccc(-c3ccc(C(C)(C)C)cc3)cc2)C(=O)C2CCCCC2)c1` [Compound 262] showed an RE of 1.38.
`COC(=O)/C=C/c1cccc(N(Cc2ccc(-c3ccc(CC(C)C)cc3)cc2)C(=O)C(C)C)c1` [Compound 263] was tested, and the RE was 0.59.
Work on `COC(=O)/C=C/c1cccc(N(Cc2ccc(-c3ccc(C(C)(C)C)cc3)cc2)C(=O)NC(C)C)c1` [Compound 264] yielded an RE of 1.02.
With `COC(=O)/C=C/c1cccc(N(Cc2ccc(-c3cccc(OC)c3)cc2)C(=O)C2CCCCC2)c1` [i] the RE was 1.51.

Same assay, conditions: cell-based reporter assay
With `COC(=O)/C=C/c1cccc(N(Cc2ccc(-c3cccc(Cl)c3)cc2)C(=O)C(C)C)c1` [Compound 233] the “FXR activation (in words)” value was “excellent activity”.
With `COC(=O)/C=C/c1cccc(N(Cc2ccc(-c3c(OC)cccc3OC)cc2)C(=O)C2CCCCC2)c1` [Compound 256] the “FXR activation (in words)” value was “excellent activity”.
`COC(=O)/C=C/c1cccc(N(Cc2ccc(-c3c(OC)cccc3OC)cc2)C(=O)C(C)C)c1` [Compound 257] was tested, and the “FXR activation (in words)” value was “excellent activity”.
For `COC(=O)/C=C/c1cccc(N(Cc2ccc(-c3ccc(N(C)C)cc3)cc2)C(=O)C(C)C)c1` [Compound 260], the “FXR activation (in words)” value was “excellent activity”.
